Measured values from patent US10450318B2, “CXCR4 receptor antagonists” (BRISTOL-MYERS SQUIBB COMPANY, priority 2015, dated 2019).

Target: T1, CXCR4 receptors (Homo sapiens, UniProt P61073)
T1 construct: expressing endogenous CXCR4 receptors; endogenous in cells; host or cells: CCRF-CEM (human T lymphoblast cells)
Assay: CXCR4-CEM calcium flux assay, antagonist mode (inhibition of SDF-1α-induced calcium flux)
Type: cell-based
Settings: inhibition of calcium flux induced by 4 nM SDF-1α in CCRF-CEM cells
Procedure: Exemplary compounds of the invention were tested for their ability to induce or inhibit calcium flux in CCRF-CEM cells. […] CXCR4-CEM Calcium Flux Assays. […] The cells were then equilibrated to room temperature for 30 minutes before assay. […] The serially diluted compounds were diluted to working concentrations with the same assay buffer to 0.5% DMSO. […] Activity of the compounds to induce calcium flux was monitored by FDSS in the “agonist mode” for 90 sec. For “antagonist mode” assessment, the cells are subsequently incubated for 25 min at room temperature. SDF-1α (R&D System Cat#350-NS/CF) was then added at a final concentration of 4 nM to stimulate the cells. Inhibition of SDF-1α-induced calcium flux was monitored by FDSS6000 for 90 sec. […] After correcting for background, EC50 values were determined. […] Inhibition data for the test compound over a range of concentrations was plotted as percentage inhibition of the test compound as compared to an internal control compound.

T1 sequence (P61073 whole entry): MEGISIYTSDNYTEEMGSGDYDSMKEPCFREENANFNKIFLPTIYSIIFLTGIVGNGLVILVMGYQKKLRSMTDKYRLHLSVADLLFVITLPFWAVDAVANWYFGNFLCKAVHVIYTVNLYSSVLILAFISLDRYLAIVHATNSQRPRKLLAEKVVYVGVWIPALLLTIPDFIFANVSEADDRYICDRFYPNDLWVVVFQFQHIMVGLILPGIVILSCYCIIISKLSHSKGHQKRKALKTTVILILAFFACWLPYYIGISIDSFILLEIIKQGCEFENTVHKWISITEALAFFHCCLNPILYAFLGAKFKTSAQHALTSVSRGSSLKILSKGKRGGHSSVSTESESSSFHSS

SMILES	IC50 [nM]
CN(C)c1ccc(CN2CCN(c3nccc4nc(CN(C)[C@H]5CCCc6cccnc65)cn34)CC2)cc1 [Example 60, (8S)-N-{[5-(4-{[4-(dimethylamino)phenyl]methyl}piperazin-1-yl)imidazo[1,2-c]pyrimidin-2-yl]methyl}-N-methyl-5,6,7,8-tetrahydroquinolin-8-amine]	7.6
CN(Cc1cn2c(N3CCN(CCc4ccc(O)cc4)CC3)nccc2n1)[C@H]1CCCc2cccnc21 [Example 61, 4-(2-{4-[2-({methyl[(S)-5,6,7,8-tetrahydroquinolin-8-yl]amino}methyl)imidazo[1,2-c]pyrimidin-5-yl]piperazin-1-yl}ethyl)phenol]	33
CN(Cc1cn2c(N3CCN(S(=O)(=O)c4cccs4)CC3)nccc2n1)[C@H]1CCCc2cccnc21 [Example 62, (S)-N-methyl-N-({5-[4-(thiophene-2-sulfonyl)piperazin-1-yl]imidazo[1,2-c]pyrimidin-2-yl}methyl)-5,6,7,8-tetrahydroquinolin-8-amine]	19600
CN(Cc1cn2c(N3CCN(S(=O)(=O)c4ccccc4)CC3)nccc2n1)[C@H]1CCCc2cccnc21 [Example 63, (S)-N-({5-[4-(benzenesulfonyl)piperazin-1-yl]imidazo[1,2-c]pyrimidin-2-yl}methyl)-N-methyl-5,6,7,8-tetrahydroquinolin-8-amine]	16700
CN(Cc1cn2c(N3CCN(Cc4ccc(C(F)(F)F)cc4)CC3)nccc2n1)[C@H]1CCCc2cccnc21 [Example 64, (S)-N-methyl-N-{[5-(4-{[4-(trifluoromethyl)phenyl]methyl}piperazin-1-yl)imidazo[1,2-c]pyrimidin-2-yl]methyl}-5,6,7,8-tetrahydroquinolin-8-amine]	11
CC(CCN1CCN(c2nccc3nc(CN(C)[C@H]4CCCc5cccnc54)cn23)CC1)c1ccccc1 (stereo partly drawn) [Example 65, (S)-N-methyl-N-({5-[4-(3-phenylbutyl)piperazin-1-yl]imidazo[1,2-c]pyrimidin-2-yl}methyl)-5,6,7,8-tetrahydroquinolin-8-amine]	16
CN(Cc1cn2c(N3CCN(C(=O)Nc4cccc(Cl)c4)CC3)nccc2n1)[C@H]1CCCc2cccnc21 [Example 68, N-(3-chlorophenyl)-4-[2-({methyl[(S)-5,6,7,8-tetrahydroquinolin-8-yl]amino}methyl)imidazo[1,2-c]pyrimidin-5-yl]piperazine-1-carboxamide]	50
CN(Cc1cn2c(N3CCNCC3)nccc2n1)[C@H]1CCOc2cccnc21 [Example 70, (S)—N-Methyl-N-((5-(piperazin-1-yl)imidazo[1,2-c]pyrimidin-2-yl)methyl)-3,4-dihydro-2H-pyrano[3,2-b]pyridin-4-amine]	4.2

Other lines, results leading:

IC50 [nM]	SMILES
25	CN(Cc1cn2c(N3CCN(Cc4ccccc4O)CC3)nccc2n1)[C@H]1CCCc2cccnc21 [Example 59, 2-({4-[2-({methyl[(S)-5,6,7,8-tetrahydroquinolin-8-yl]amino}methyl)imidazo[1,2-c]pyrimidin-5-yl]piperazin-1-yl}methyl)phenol]
9.4	CN(Cc1cn2c(N3CCN(Cc4cccc(C#N)c4)CC3)nccc2n1)[C@H]1CCCc2cccnc21 [Example 66, 3-({4-[2-({methyl[(S)-5,6,7,8-tetrahydroquinolin-8-yl]amino}methyl)imidazo[1,2-c]pyrimidin-5-yl]piperazin-1-yl}methyl)benzonitrile]
42	CN(Cc1cn2c(N3CCN(Cc4nccs4)CC3)nccc2n1)[C@H]1CCCc2cccnc21 [Example 67, (S)-N-methyl-N-({5-[4-(1,3-thiazol-2-ylmethyl)piperazin-1-yl]imidazo[1,2-c]pyrimidin-2-yl}methyl)-5,6,7,8-tetrahydroquinolin-8-amine]
3.8	CN(Cc1cn2c(N3CCN(Cc4cccc(O)c4)CC3)nccc2n1)[C@H]1CCCc2cccnc21 [Example 69, 3-({4-[2-({methyl[(S)-5,6,7,8-tetrahydroquinolin-8-yl]amino}methyl)imidazo[1,2-c]pyrimidin-5-yl]piperazin-1-yl}methyl)phenol]
